The values below come from ChEMBL document CHEMBL1140704, “Further structure-activity relationships study of hybrid 7-{[2-(4-phenylpiperazin-1-yl)ethyl]propylamino}-5,6,7,8-tetrahydronaphthalen-2-ol analogues: identification of a high-affinity D3-preferring agonist with potent in vivo activity with long duration of action” (J Med Chem, 2008).

pEC50, pKi: −log10 of the molar value. Activity calls are given as the source filed them. No cut-off for these calls is given here.

For test [1], the target named is T1, D(3) dopamine receptor (Homo sapiens, UniProt P35462). Put plainly: biochemical.
Description: Displacement of [3H]spiperone from human cloned dopamine D3 receptor expressed in HEK293 cells
In test [2] the target is T2, D(2) dopamine receptor (Homo sapiens, UniProt P14416). Briefly: biochemical.
Description: Displacement of [3H]spiperone from human cloned dopamine D2L receptor expressed in HEK293 cells
For test [3], the species on record is Homo sapiens. Put plainly: Selectivity for human D3 receptor over human D2L receptor.
Test [4] concerns the target T2, D(2) dopamine receptor. Put plainly: Agonist activity at human cloned dopamine D2L receptor expressed in CHO cells assessed as stimulation of [35S]GTPgammaS binding. It counts as functional, cell-based.
Test [5] addresses T1, D(3) dopamine receptor.
Description: Agonist activity at human cloned dopamine D3 receptor expressed in AtT-20 cells assessed as stimulation of [35S]GTP-gamma-S binding
In test [6] the test system is Rattus norvegicus. Put plainly: Effect on rotational activity in 6-OH-DA-Lesioned rat assessed as number of rotations at 2.51 mg/kg, ip. It counts as functional, organism-based. Also noted: dose 2.51 mg/kg.
In test [7] the test system is Rattus norvegicus. Briefly: Effect on rotational activity in 6-OH-DA-Lesioned rat assessed as number of rotations at 0.53 mg/kg, ip after 9 hrs. Conditions: route intraperitoneal. The format is functional.
The subject of test [8] is Rattus norvegicus. Briefly: Effect on rotational activity in 6-OH-DA-Lesioned rat assessed as number of rotations at 2.87 mg/kg, ip after 12 hrs. It counts as functional. To be noted: route intraperitoneal.

T2 sequence (P14416 whole entry): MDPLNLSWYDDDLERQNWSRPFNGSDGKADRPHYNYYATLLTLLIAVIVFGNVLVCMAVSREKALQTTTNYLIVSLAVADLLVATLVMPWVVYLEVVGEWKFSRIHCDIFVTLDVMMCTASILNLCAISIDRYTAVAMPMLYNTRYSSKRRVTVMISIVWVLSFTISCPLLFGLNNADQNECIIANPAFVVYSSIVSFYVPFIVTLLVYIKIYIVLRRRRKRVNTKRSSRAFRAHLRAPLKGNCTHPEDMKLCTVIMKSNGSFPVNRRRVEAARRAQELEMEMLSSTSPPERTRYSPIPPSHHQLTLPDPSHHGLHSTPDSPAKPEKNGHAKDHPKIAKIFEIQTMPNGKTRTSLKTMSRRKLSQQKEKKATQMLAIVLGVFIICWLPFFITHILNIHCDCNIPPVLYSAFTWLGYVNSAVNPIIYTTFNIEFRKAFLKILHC
T1 sequence (P35462 whole entry): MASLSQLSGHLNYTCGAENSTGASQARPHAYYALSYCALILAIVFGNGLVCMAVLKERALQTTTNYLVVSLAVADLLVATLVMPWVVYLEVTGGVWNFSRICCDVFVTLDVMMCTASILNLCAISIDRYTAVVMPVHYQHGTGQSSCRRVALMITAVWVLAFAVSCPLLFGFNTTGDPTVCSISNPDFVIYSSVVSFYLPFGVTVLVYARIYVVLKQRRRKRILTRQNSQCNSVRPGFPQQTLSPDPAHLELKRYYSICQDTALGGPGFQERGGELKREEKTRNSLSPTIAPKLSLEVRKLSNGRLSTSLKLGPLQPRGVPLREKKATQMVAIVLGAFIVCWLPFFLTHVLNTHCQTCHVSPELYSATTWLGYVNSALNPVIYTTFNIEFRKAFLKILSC

Regarding `CCCN(CCCCN1CCN(c2ccccc2)CC1)C1CCc2ccc(O)cc2C1` (stereo in doubt; (-)-13) [listing 1 of 2 here], the negative-log Ki (pKi) in test [1] is 8.91; in test [2], 7.71.

As for `CCCN(CCN1CCN(c2ccccc2OC)CC1)C1CCc2c(O)cccc2C1` (single isomer, unassigned; (-)) [listing 1 of 2 here], in test [3], the Ratio EC50 came out at 19.4 and the Ratio Ki came out at 20.9.

Consider `CCCN(CCCCN1CCN(c2ccccc2)CC1)C1CCc2cc(O)c(O)cc2C1` (stereo not given), for which the results for the negative-log Ki (pKi) in test [1] and in test [2] were 8.54 and 7.66, respectively. Besides, the Ratio Ki in test [3] was determined as 7.51.

Take `CCCN(CCN1CCN(c2ccccc2OC)CC1)C1CCc2c(O)cccc2C1` (single isomer, unassigned; (-)) [listing 2 of 2 here]: the negative logarithm of the EC50 (pEC50) in test [4] is 8.81; in test [5] it was 10.10. The pKi in test [1] is 9.34; in test [2], 8.02.

`CCCN(CCCCN1CCN(c2ccccc2)CC1)C1CCc2ccc(O)cc2C1` (stereo in doubt; (+)-13) [listing 1 of 2 here]: in test [3], the Ratio Ki was 25.8.

As for `CCCN(CCN1CCN(c2ccccc2)CC1)C1CCc2ccc(O)cc2C1` (stereo not given), the figures for the pEC50 in test [4] and in test [5] were 7.91 and 9.16, respectively. The values for the pKi in test [1] and in test [2] were 8.81 and 6.85, respectively. In test [3], the Ratio EC50 turned out to be 17.6. In addition, the Ratio Ki in test [3] came to 91. In addition, the outcome in test [6] was Active.

As for `CCCN(CCN1CCN(c2ccccc2OC)CC1)C1CCc2c(O)cccc2C1` (single isomer, unassigned; (+)) [listing 1 of 2 here], in test [3], the Ratio Ki was found to be 4.72.

As to `CCCN(CCN1CCN(c2ccccc2OC)CC1)C1CCc2c(O)cccc2C1` (racemic) [listing 1 of 2 here], the Ratio Ki in test [3] came out at 12.8.

For `CCCN(CCN1CCN(c2ccccc2)CC1)C1CCc2c(O)cccc2C1` (stereo in doubt; (-)-25), the Activity turned out to be 3609 in test [7] and 4319 in test [8].

As for `CCCN(CCN1CCN(c2ccccc2)CC1)C1CCc2ccc3c(c2C1)CC(=O)N3` (stereo not given), the results for the pKi in test [1] and in test [2] were 7.96 and 7.04, respectively. The Ratio Ki in test [3] was 8.27.

Consider `CCCN(CCN1CCN(c2ccccc2OC)CC1)C1CCc2c(O)cccc2C1` (single isomer, unassigned; (+)) [listing 2 of 2 here], for which the results for the pKi in test [1] and in test [2] were 7.73 and 7.05, respectively.

As for `CCCN(CCN1CCN(c2ccccc2)CC1)C1CCc2ccc(N)cc2C1` (stereo not given), the negative-log Ki (pKi) was 7.65 in test [1] and 6.20 in test [2].

Take `CCCN(CCN1CCN(c2cccc(Cl)c2Cl)CC1)C1CCc2c(O)cccc2C1` (racemic): the pKi in test [1] was 9.35; in test [2] it was 7.84. In test [3], the Ratio Ki came out at 32.2.

`CCCN(CCCN1CCN(c2ccccc2)CC1)C1CCc2ccc(O)cc2C1` (stereo not given): the negative-log Ki (pKi) is 7.99 in test [1] and 6.78 in test [2]. Moreover, the Ratio Ki in test [3] is 16.2.

As to `CCCN(CCN1CCN(c2ccccc2)CC1)C1CCc2cc(O)c(O)cc2C1` (stereo not given), the pKi in test [1] was 8.86; in test [2] it was 7.15. Besides, in test [3], the Ratio Ki amounted to 50.6.

For `CCCN(CCCCN1CCN(c2ccccc2)CC1)C1CCc2ccc(O)cc2C1` (stereo in doubt; (-)-13) [listing 2 of 2 here], the Ratio Ki in test [3] was 15.9.

Consider `Oc1ccc2c(c1)CC(N(CCc1cccs1)CCN1CCN(c3ccccc3)CC1)CC2` (stereo not given), for which the pKi in test [1] was 7.62; in test [2], 7.61. Further, the Ratio Ki in test [3] amounted to 1.03.

On to `CCCN(CCN1CCN(c2ccccc2OC)CC1)C1CCc2c(O)cccc2C1` (racemic) [listing 2 of 2 here], for which the pKi is 8.55 in test [1] and 7.45 in test [2].

With `CCCN(CCN1CCN(c2ccccc2)CC1)C1CCc2cc(O)ccc2C1` (stereo not given), the pKi in test [1] is 7.95; in test [2] it was 6.19. Further, the Ratio Ki in test [3] came out at 57.9.

With `CCCN(CCCCN1CCN(c2ccccc2)CC1)C1CCc2ccc(O)cc2C1` (stereo in doubt; (+)-13) [listing 2 of 2 here], the negative-log Ki (pKi) in test [1] is 9.13; in test [2], 7.71.
